Results on ten compounds are retold here after PubChem BioAssay (NCI).

The structures appear in SMILES notation.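 Each compound was tested at five concentrations against cells in 96-well plates for 48 hours. At the TGI there is no net growth.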

Some test systems named below: A549 NSCLC; HCC-2998 colon; HCT-116 colon; HOP-92 NSCLC; KM12 colon; M14 melanoma; MDA-MB-231 breast; MOLT-4 leukemia; NCI-H226 lung; NCI-H460 lung; PC-3 prostate; SF-268 CNS; SK-MEL-5 melanoma; SNB-75 CNS; SW-620 colon; TK-10 renal; UACC-62 melanoma.
Assay in all cases: inhibition of tumour cell growth, NCI panel, 48 h

As to `O=C1c2ccccc2C(=O)c2oc(Br)cc21`, the TGI with A549 NSCLC was determined as 1.03 µM; in the test with HCC-2998 colon, 3.27 µM; in the test with HCT-116 colon, 2.7 µM; in the test with HOP-92 NSCLC, 4.23 µM; in the test on KM12 colon, 3.2 µM; in the test on M14 melanoma, 0.311 µM. In addition, the TGI amounted to 7.32 µM with MDA-MB-231 breast; 4.27 µM with MOLT-4 leukemia; 3.22 µM with NCI-H226 lung; 2.64 µM in the test on NCI-H460 lung; 11.1 µM with PC-3 prostate; 4.22 µM in the test with SF-268 CNS. Besides, the TGI with SK-MEL-5 melanoma came to 0.284 µM; in the test with SNB-75 CNS, 0.684 µM; in the test on SW-620 colon it was 1.09 µM; in the test on TK-10 renal, 6.15 µM; with UACC-62 melanoma, 1.84 µM.
For the compound `N#CC(C#N)=Cn1c(=S)[nH]c2ccccc21`, the TGI in the test with A549 NSCLC, in the test with HCC-2998 colon, with HCT-116 colon, in the test on HOP-92 NSCLC, with KM12 colon and in the test on M14 melanoma was > 100 µM in each case. In addition, the TGI with MDA-MB-231 breast, with MOLT-4 leukemia, in the test on NCI-H226 lung, in the test with NCI-H460 lung, in the test with PC-3 prostate and with SF-268 CNS was > 100 µM throughout. The TGI with SK-MEL-5 melanoma, in the test with SNB-75 CNS, in the test with SW-620 colon, in the test on TK-10 renal and in the test on UACC-62 melanoma was > 100 µM throughout.
Take `COc1ccc(C(=O)Nc2ccc3oc(-c4ccccc4)nc3c2)cc1`: the TGI in the test with A549 NSCLC, in the test with HCC-2998 colon, in the test with HCT-116 colon, in the test with HOP-92 NSCLC, in the test with KM12 colon and with M14 melanoma was > 100 µM in each case. Moreover, the TGI with MDA-MB-231 breast, with MOLT-4 leukemia, with NCI-H226 lung, in the test with NCI-H460 lung, in the test on PC-3 prostate and in the test on SF-268 CNS was > 100 µM each time. The TGI in the test on SK-MEL-5 melanoma was > 100 µM; in the test with SNB-75 CNS, 89.8 µM; with SW-620 colon it was > 100 µM; in the test on TK-10 renal, > 100 µM; in the test with UACC-62 melanoma, > 100 µM.
For `O=C(CSC1=NNC2(C(=O)N1)c1ccccc1-c1ccccc12)NC(=S)Nc1ccccc1`, the TGI in the test on A549 NSCLC, in the test on HCC-2998 colon, with HCT-116 colon, in the test with HOP-92 NSCLC, in the test on KM12 colon and in the test on M14 melanoma was > 10 µM throughout. The TGI in the test with MDA-MB-231 breast, in the test on MOLT-4 leukemia, with NCI-H226 lung, in the test on NCI-H460 lung, with PC-3 prostate and in the test on SF-268 CNS was > 10 µM throughout. For the same compound, the TGI with SK-MEL-5 melanoma, with SNB-75 CNS, in the test with SW-620 colon, with TK-10 renal and in the test with UACC-62 melanoma was > 10 µM each time.
For the compound `S=C1N=C(Cl)/C(=C\c2ccccc2)N1`, the TGI in the test on A549 NSCLC, in the test with HCC-2998 colon, in the test with HCT-116 colon, with HOP-92 NSCLC, with KM12 colon and in the test with M14 melanoma was > 100 µM in each case. Moreover, the TGI with MDA-MB-231 breast, in the test with MOLT-4 leukemia, with NCI-H226 lung, with NCI-H460 lung, with PC-3 prostate and in the test on SF-268 CNS was > 100 µM each time. For the same compound, the TGI with SK-MEL-5 melanoma, in the test on SNB-75 CNS, in the test with SW-620 colon, with TK-10 renal and in the test on UACC-62 melanoma was > 100 µM each time.
In the case of `Cc1nc2c(=O)n3c4c(cccc4c2o1)CCC3`, the TGI in the test with A549 NSCLC, in the test with HCC-2998 colon, in the test on HCT-116 colon, with HOP-92 NSCLC, with KM12 colon and with M14 melanoma was > 100 µM throughout. Also, the TGI in the test on MDA-MB-231 breast, with MOLT-4 leukemia, in the test with NCI-H226 lung, with NCI-H460 lung, in the test on PC-3 prostate and with SF-268 CNS was > 100 µM in each case. Further, the TGI in the test on SK-MEL-5 melanoma, in the test with SNB-75 CNS, in the test with SW-620 colon, in the test with TK-10 renal and in the test with UACC-62 melanoma was > 100 µM in each case.
With `CC#CC(O)(C(=O)OC1CC2CCC(C1)N2C)C1CCCC1` (stereo not given), the TGI in the test on A549 NSCLC, in the test on HCC-2998 colon, in the test with HCT-116 colon, in the test with HOP-92 NSCLC, in the test with KM12 colon and in the test on M14 melanoma was > 100 µM in each case. Besides, the TGI with MDA-MB-231 breast, in the test on MOLT-4 leukemia, in the test on NCI-H226 lung, with NCI-H460 lung, in the test with PC-3 prostate and in the test with SF-268 CNS was > 100 µM in each case. Moreover, the TGI in the test on SK-MEL-5 melanoma, with SNB-75 CNS, in the test with SW-620 colon, in the test on TK-10 renal and in the test on UACC-62 melanoma was > 100 µM in each case.
For `COc1ccc(CCNC(=O)[C@H]2CCCC[C@@H]2CCO)cc1OC`, the TGI in the test with A549 NSCLC, in the test with HCC-2998 colon, in the test with HCT-116 colon, in the test with HOP-92 NSCLC, in the test with KM12 colon and in the test on M14 melanoma was > 100 µM throughout. Also, the TGI in the test on MDA-MB-231 breast, in the test on MOLT-4 leukemia, with NCI-H226 lung, with NCI-H460 lung, in the test on PC-3 prostate and in the test on SF-268 CNS was > 100 µM throughout. Also, the TGI in the test with SK-MEL-5 melanoma, with SNB-75 CNS, in the test with SW-620 colon, in the test on TK-10 renal and in the test with UACC-62 melanoma was > 100 µM throughout.
Take `Cc1cc(-c2nc3cccc(F)c3s2)ccc1N`: the TGI with A549 NSCLC is > 100 µM; with HCC-2998 colon, > 100 µM; with HCT-116 colon, > 100 µM; in the test with HOP-92 NSCLC it was > 88.2 µM; in the test with KM12 colon, > 100 µM; with M14 melanoma it was > 100 µM. Further, the TGI with MDA-MB-231 breast is > 100 µM; with MOLT-4 leukemia it was > 96.1 µM; with NCI-H226 lung, > 100 µM; in the test on NCI-H460 lung, > 100 µM; in the test with PC-3 prostate it was > 100 µM; in the test on SF-268 CNS, > 86 µM. For the same compound, the TGI in the test on SK-MEL-5 melanoma is > 100 µM; with SNB-75 CNS, 99.4 µM; in the test on SW-620 colon, > 100 µM; in the test with TK-10 renal, > 100 µM; in the test on UACC-62 melanoma, > 100 µM.
On to `O=c1oc2ccc([N+](=O)[O-])cc2c(Nc2ccc3c(c2)S(=O)(=O)c2ccccc2O3)c1[N+](=O)[O-]`, for which the TGI in the test on A549 NSCLC, with HCC-2998 colon, in the test with HCT-116 colon, in the test on HOP-92 NSCLC, with KM12 colon and in the test on M14 melanoma was > 100 µM throughout. Besides, the TGI is > 100 µM in the test with MDA-MB-231 breast; > 100 µM with MOLT-4 leukemia; 96.8 µM in the test with NCI-H226 lung; > 100 µM in the test on NCI-H460 lung; > 100 µM in the test with PC-3 prostate; > 100 µM with SF-268 CNS. Moreover, the TGI in the test with SK-MEL-5 melanoma, with SNB-75 CNS, in the test on SW-620 colon, with TK-10 renal and with UACC-62 melanoma was > 100 µM in each case.
